According to patent publication US20190328869A1, “IMMUNOTHERAPEUTIC PRODUCT AND MDSC MODULATOR COMBINATION THERAPY” (Transgene SA, priority 2016, published 2019):

System: Adenovirus-specific T cells producing IFNγ
Assay: IFNγ-ELISpot, vector-specific T cell response (Ad-specific peptide FAL) in HBV-persistent mice
Format: in vivo, C57BL/6J mice
Details: splenocytes, day 76 post AAV2/8-HBV; sildenafil 20 mg/kg/day D31-59 or D48-76; AdTG18201 2×10^9 vp sc D36, 43, 50
Experimental: The capacity of splenocytes to produce IFNγ after different in vitro stimulations was measured by an IFNγ-ELISpot assay at day 76 post AAV2/8-HBV injection. Vector-specific T cell responses were assessed using the Ad-specific peptide FAL. Results are shown as the number of spots per 10^6 splenocytes. Each dot represents an individual mouse and thick line represents the mean value for each group (+/−SEM). The horizontal gray line represents the technical cutoff value (50 spots/10^6 cells) above which values are considered as positive T cell responses and which was defined as described in the Material and Methods. For groups with a positive T cell response, incidence of mice per group is indicated on the graph.
The HBV persistent mice used in the study were described by Dion et al. (2013, J Virol, 87(10):5554-63). […] This allows the analysis of HBV-specific viral parameters (HBsAg, HBeAg, HBcAg and viremia) as well as immunological read-outs (ICS, ELISpot or humoral immune responses). […]
IFNg-producing T cells were quantified by cytokine-specific ELISpot (enzyme linked immunospot) assay as previously described (Himoudi et al., 2002, J. Virol. 76: 12735). The number of spots (corresponding to the IFNg-producing T cells) in negative control wells were subtracted from the number of spots detected in experimental wells containing HBV peptides. […]

**Q.** How did the “IFNg-response to the Ad-specific peptide FAL” value turn out when CCCc1nn(C)c2c(=O)nc(-c3cc(S(=O)(=O)N4CCN(C)CC4)ccc3OCC)[nH]c12 [sildenafil, 1-[[3-(4,7-dihydro-1-methyl-7-oxo-3-propyl-1H-pyrazolo[4,3-d]pyrimidin-5-yl)-4-ethoxyphenyl]sulfonyl]-4-methylpiperazine] was run?
**A.** Its value is “negative”.
